Legend:
[1] = tested on: normal NK cells expanded with K562-aAPC; assay: percent inhibition of viability; higher = more inhibition; settings: 72 h, IL-2 2.5 ng/mL
Experimental: (§1)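 Drug sensitivity and resistance testing on K562-aAPC-expanded normal NK cells: 5 concentrations (10-fold steps over a 10,000-fold range), 72 h at 37 °C, viability by CellTiter-Glo normalised to DMSO and benzethonium chloride controls; DSS from the fitted curve.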

[2] = tested on: normal primary NK cells, pool 2 (3 donors) (IL-2 2.5 ng/mL); assay: as above; settings: 72 h
[3] = tested on: YT (IL-2 2.5 ng/mL); assay: as above; settings: 72 h
[4] = tested on: SNK-6 (IL-2 2.5 ng/mL); assay: as above; settings: 72 h
[5] = tested on: IMC-1 (IL-2 20 ng/mL); assay: as above; settings: 72 h
[6] = tested on: DERL-7 (IL-2 2.5 ng/mL); assay: as above; settings: 72 h
[7] = tested on: KAI3 (IL-2 2.5 ng/mL); assay: as above; settings: 72 h
[8] = tested on: normal primary NK cells, pool 1 (3 donors), resting (IL-2 0 ng/mL); assay: as above; settings: 72 h
[9] = tested on: normal primary NK cells, pool 1 (3 donors) (IL-2 2.5 ng/mL); assay: as above; settings: 72 h
[10] = tested on: normal primary NK cells, pool 3 (3 donors) (IL-2 2.5 ng/mL); assay: as above; settings: 72 h
[11] = tested on: NKL (IL-2 2.5 ng/mL); assay: as above; settings: 72 h
[12] = tested on: KHYG-1 (IL-2 2.5 ng/mL); assay: as above; settings: 72 h
[13] = tested on: NK-YS (IL-2 2.5 ng/mL); assay: as above; settings: 72 h
[14] = tested on: NK-92 (IL-2 2.5 ng/mL); assay: as above; settings: 72 h
[15] = tested on: normal primary NK cells, pool 2 (3 donors) (IL-2 2.5 ng/mL); assay: drug sensitivity score (DSS) (DSS units); higher = more sensitive; extreme values may be limits of the assay; settings: 72 h
[16] = tested on: YT (IL-2 2.5 ng/mL); assay: as above; settings: 72 h
[17] = tested on: SNK-6 (IL-2 2.5 ng/mL); assay: as above; settings: 72 h
[18] = tested on: IMC-1 (IL-2 20 ng/mL); assay: as above; settings: 72 h
[19] = tested on: DERL-7 (IL-2 2.5 ng/mL); assay: as above; settings: 72 h
[20] = tested on: KAI3 (IL-2 2.5 ng/mL); assay: as above; settings: 72 h
[21] = tested on: normal primary NK cells, pool 1 (3 donors), resting (IL-2 0 ng/mL); assay: as above; settings: 72 h
[22] = tested on: normal primary NK cells, pool 1 (3 donors) (IL-2 2.5 ng/mL); assay: as above; settings: 72 h
[23] = tested on: normal primary NK cells, pool 3 (3 donors) (IL-2 2.5 ng/mL); assay: as above; settings: 72 h
[24] = tested on: NKL (IL-2 2.5 ng/mL); assay: as above; settings: 72 h
[25] = tested on: KHYG-1 (IL-2 2.5 ng/mL); assay: as above; settings: 72 h
[26] = tested on: NK-YS (IL-2 2.5 ng/mL); assay: as above; settings: 72 h
[27] = tested on: NK-92 (IL-2 2.5 ng/mL); assay: as above; settings: 72 h
[28] = tested on: normal NK cells expanded with K562-aAPC; assay: as above; settings: 72 h; IL-2 2.5 ng/mL
Experimental: as §1

NC(=O)c1cccc(-c2cccc(OC(=O)NC3CCCCC3)c2)c1 [URB597] (max concentration tested 1000 nM)
percent inhibition of viability [%]
Settings | 0.1 nM | 1 nM | 10 nM | 100 nM | 1000 nM
[1] | -5.77 | -3.62 | -1 | 7.42 | 7.56
[2] | -11.5 | -5.88 | 15.1 | -7.18 | 8.87
[3] | 1.76 | 2.28 | 2.53 | 3.49 | 9.4
[4] | -7.3 | 9.09 | 10.3 | 2.22 | 2.83
[5] | -4 | 4.78 | 2.31 | 4 | 3.07
[6] | 11 | 4.35 | 12 | 5.02 | 5.08
[7] | -3.62 | -6.19 | -2.65 | -2.84 | 16.1
[8] | -1.65 | -9.18 | 1.01 | -15.8 | -6.01
[9] | 5.21 | -3.54 | 1.12 | -15.5 | -7.59
[10] | -10.1 | -1.33 | 5.88 | -9.83 | 6.07
[11] | 3.64 | 0.02 | 13.3 | 15.1 | 14.2
[12] | -1.98 | 3.31 | 2.01 | 2.83 | 7.66
[13] | -1.3 | 0.73 | 8.14 | 5.17 | 8.51
[14] | 1.97 | 3.05 | 12.2 | -3.48 | 7.28

Settings | drug sensitivity score
[15] | 0
[16] | 0
[17] | 0
[18] | 0
[19] | 0
[20] | 0.21
[21] | 0
[22] | 0
[23] | 0
[24] | 2.41
[25] | 0
[26] | 0
[27] | 0
[28] | 0

CCC(C)(C)C(=O)O[C@H]1C[C@@H](C)C=C2C=C[C@H](C)[C@H](CC[C@@H]3C[C@@H](O)CC(=O)O3)[C@H]21 [Simvastatin] (max concentration tested 10000 nM)
percent inhibition of viability [%]
Settings | 1 nM | 10 nM | 100 nM | 1000 nM | 10000 nM
[1] | 0.17 | -4.47 | -1.19 | -2.06 | 6.89
[2] | -9.03 | -7.28 | -6.35 | 14.3 | 19.6
[3] | 0.42 | -0.1 | 0.72 | 2.62 | 23.9
[4] | 4.57 | -0.33 | 6.13 | -5.3 | 1.07
[5] | -0.2 | -3.36 | 3.54 | 3.84 | 38.1
[6] | -1.97 | -3.51 | 4.88 | 4.07 | 10.3
[7] | 3.02 | -8.09 | -7.7 | -3.05 | 22.5
[8] | -0.52 | -1.88 | -12.8 | -6.51 | 13.3
[9] | -7.84 | 9.33 | -16.5 | -3.95 | 8.72
[10] | -9.67 | -10.8 | -5.99 | 4.87 | 2.32
[11] | -16.6 | -8.92 | 0.63 | 6 | 68.9
[12] | 2.27 | -0.82 | 3.03 | 5.63 | 11.2
[13] | -1.72 | 2.03 | 2 | 6.51 | 68.6
[14] | -8.62 | -9.55 | 2.91 | -5.14 | -1.54

Settings | drug sensitivity score
[15] | 1.89
[16] | 1.26
[17] | 0
[18] | 2.48
[19] | 0
[20] | 0.61
[21] | 0.04
[22] | 0
[23] | 0
[24] | 4.74
[25] | 0
[26] | 4.82
[27] | 0
[28] | 0

CC(C)Cn1cnc2c(N)nc3ccccc3c21 [Imiquimod] (max concentration tested 2500 nM)
percent inhibition of viability [%]
Settings | 0.25 nM | 2.5 nM | 25 nM | 250 nM | 2500 nM
[1] | -2.97 | -4.12 | -1.05 | 14.8 | 11.3
[2] | -8 | -6.73 | -8.32 | -4.68 | 20.8
[3] | -4.4 | -3 | 5.75 | 3.31 | 4.52
[4] | 10.3 | -13.6 | 12.2 | 44 | 57.8
[5] | 2.11 | -3.32 | 4.26 | 10.8 | 22.2
[6] | -5 | 4.44 | -3.41 | 4.83 | -1.82
[7] | -2.07 | -8.41 | 6.25 | 5.37 | 17.9
[8] | -4.66 | 7.46 | -14.7 | -14.5 | -19.1
[9] | -14.4 | 5.91 | -7.15 | -9.14 | 5.82
[10] | -14.7 | -9.92 | -6.17 | -5.82 | 6.93
[11] | -2.54 | -14.7 | -1.93 | 3.67 | 1.08
[12] | -3 | -3.08 | 2.45 | 6.32 | 13.8
[13] | -0.76 | -2.23 | 5.71 | 6 | 16.1
[14] | -7.9 | -11.3 | -5.41 | 5.55 | 12.3

Settings | drug sensitivity score
[15] | 0.45
[16] | 0
[17] | 9.47
[18] | 1.48
[19] | 0
[20] | 0.57
[21] | 0
[22] | 0
[23] | 0
[24] | 0
[25] | 0.26
[26] | 0.38
[27] | 0.3
[28] | 1.27
